How the values were obtained:
HCV = conditions: cited from earlier work

| Compound | virologic response (hepatitis C; Example A: lower doses of ribavirin (less than 400 mg/day or less than 6 mg/kg/day), slow-release, with 3 million IU Intron A once weekly) | therapeutic response versus conventional or systemic doses (hepatitis C; Example B: higher doses of ribavirin (600 mg/day), slow-release, with 3 million IU Intron A once weekly) | side effects versus conventional or systemic doses (hepatitis C; human, in vivo) | effect on HCV viral load or hepatic histology (HCV; given as monotherapy, orally) | response rate (measured by major fall in HCV levels) (HCV; administered parenterally for up to 6 months) [%] |
| --- | --- | --- | --- | --- | --- |
| NC(=O)c1ncn([C@@H]2O[C@H](CO)[C@@H](O)[C@H]2O)n1 [Ribavirin, ribavirin] | sustained virologic response | more complete or faster therapeutic response | lower side effects | no effect |  |
| interferon alfa 2b |  |  |  |  | ~25 |
